Assay results: ChEMBL document CHEMBL2029299, “Discovery of novel EGFR tyrosine kinase inhibitors by structure-based virtual screening” (Bioorg Med Chem Lett, 2012)
pIC50: −log10 of the molar value.

How the values were obtained:
NIH3T3 = experiment: Antiproliferative activity against mouse NIH/3T3 cells after 72 hrs by MTT assay; conditions: NIH3T3, 72 h
A-431 = experiment: Antiproliferative activity against human A431 cells overexpressing EGFR after 72 hrs by MTT assay; conditions: A-431, 72 h
[1] = target: Epidermal growth factor receptor (Homo sapiens, UniProt P00533); experiment: Inhibition of EGFR after 50 mins by HTRF assay
Epidermal growth factor receptor, sequence (P00533 whole entry): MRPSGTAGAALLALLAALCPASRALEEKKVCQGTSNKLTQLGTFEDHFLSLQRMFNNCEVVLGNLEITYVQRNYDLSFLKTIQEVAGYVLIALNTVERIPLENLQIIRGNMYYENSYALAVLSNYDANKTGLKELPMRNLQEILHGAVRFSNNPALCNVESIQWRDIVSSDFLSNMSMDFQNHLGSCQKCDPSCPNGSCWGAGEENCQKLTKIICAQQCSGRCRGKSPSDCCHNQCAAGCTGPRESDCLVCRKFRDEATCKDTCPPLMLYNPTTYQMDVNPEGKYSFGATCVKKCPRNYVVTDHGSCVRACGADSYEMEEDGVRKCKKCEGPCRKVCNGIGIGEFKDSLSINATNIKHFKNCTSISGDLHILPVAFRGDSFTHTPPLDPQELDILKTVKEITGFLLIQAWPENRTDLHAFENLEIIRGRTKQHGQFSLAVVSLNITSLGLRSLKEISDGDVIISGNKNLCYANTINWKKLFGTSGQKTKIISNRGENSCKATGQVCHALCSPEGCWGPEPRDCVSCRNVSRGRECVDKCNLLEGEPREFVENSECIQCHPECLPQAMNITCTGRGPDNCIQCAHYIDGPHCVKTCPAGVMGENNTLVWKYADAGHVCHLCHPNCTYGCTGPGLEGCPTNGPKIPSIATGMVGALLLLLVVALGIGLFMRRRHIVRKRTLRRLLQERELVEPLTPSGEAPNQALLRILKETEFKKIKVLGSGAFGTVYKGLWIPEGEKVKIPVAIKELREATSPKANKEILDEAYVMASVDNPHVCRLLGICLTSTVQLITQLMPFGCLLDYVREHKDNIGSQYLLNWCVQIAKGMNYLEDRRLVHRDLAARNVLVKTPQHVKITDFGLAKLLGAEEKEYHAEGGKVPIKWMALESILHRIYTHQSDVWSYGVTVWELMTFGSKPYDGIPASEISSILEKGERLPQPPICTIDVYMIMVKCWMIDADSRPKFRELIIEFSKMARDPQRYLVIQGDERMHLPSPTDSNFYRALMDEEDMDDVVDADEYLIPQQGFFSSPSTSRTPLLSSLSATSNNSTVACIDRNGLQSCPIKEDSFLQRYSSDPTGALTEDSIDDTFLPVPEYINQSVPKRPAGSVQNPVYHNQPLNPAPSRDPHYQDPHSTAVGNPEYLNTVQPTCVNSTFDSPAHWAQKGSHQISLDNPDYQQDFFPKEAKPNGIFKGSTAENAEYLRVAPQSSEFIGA

| Compound | pIC50 (A-431) | pIC50 [1] | pIC50 (NIH3T3) |
| --- | --- | --- | --- |
| O=S(=O)(c1ccc(/N=C/c2cc(Br)ccc2O)cc1)N1CCCCC1 | 4.40 | 5.01 | < 4.30 |
| Cc1ccc(N2NC(=O)/C(=C\c3ccc(-c4cc([N+](=O)[O-])ccc4O)o3)C2=O)cc1C | – | – | 4.43 |
| Cn1c(NCc2cccc(C(F)(F)F)c2)cc(=O)n(C)c1=O | < 4.30 | 4.08 | < 4.30 |
| Cc1nn(C)cc1C(=O)Nc1ccn(Cc2c(F)cccc2Cl)n1 | – | – | < 4.30 |
| C=C(N/N=C/c1cn[nH]c1-c1ccccc1)[C@H](C)Cc1ccccc1 | – | – | < 4.30 |
| Cc1ccc(N2NC(=O)/C(=C/c3ccc(OCc4ccccc4)cc3)C2=O)cc1Cl | 4.85 | 5.07 | 4.38 |
| Nc1nn2c(=O)cc(-c3ccccc3)[nH]c2c1/N=N/c1ccc2c(c1)OCO2 | 4.78 | 5.28 | 4.34 |
| CS(=O)(=O)CCNCc1ccc(-c2ccc3ncnc(Nc4ccc(OCc5cccc(F)c5)c(Cl)c4)c3c2)o1 [LAPATINIB] | – | – | 5.37 |

Second part, led by results:

| pIC50 (A-431) | pIC50 [1] | Compound | pIC50 (NIH3T3) |
| --- | --- | --- | --- |
| 4.63 | 5.46 | O=C1NN(c2ccc(F)c(Cl)c2)C(=O)/C1=C\c1cccc(OC(=O)c2cccs2)c1 | 4.55 |
| 4.57 | 4.31 | O=C(Cc1ccc(F)cc1)Nc1cc(SC[C@@H](O)CO)cc([N+](=O)[O-])c1 | < 4.30 |
| 4.71 | 5.17 | O=C(Cn1c(-c2ccccc2)cc(=O)n2ncnc12)NNC(=S)Nc1ccccc1 | 4.70 |
| 4.52 | 4.64 | Cc1cccc(N2NC(=O)/C(=C/c3ccc(-c4ccccc4F)o3)C2=O)c1 | < 4.30 |
| < 4.30 | 5.08 | CCOc1ccc(-c2cc(C(F)(F)F)c(C#N)c(SCC(=O)NCC(=O)O)n2)cc1 | < 4.30 |
| 4.72 | 5.25 | O=C1NN(c2ccc(F)cc2)C(=O)/C1=C\c1cccc(OCc2ccccc2F)c1 | 4.64 |
